Test results taken from patent publication EP0138020B1, “Anti-adhesive prophylactica and medicines containing a secretolytically active benzylamine derivative” (priority 1983, dated 1985).
Counter-ions that a name gives are not always drawn.

Assays:
[1] = system: Klebsiella pneumoniae Weingarten 14; experiment: In vivo lung infection: bacterial count in lung homogenate; details: relative to Tylose control = 100; treated 8-10 h before, 15 min before and 4-5 h after infection, preferably i.m. 20-40 mg/kg; lungs preferably 10 h after infection
Method: • a. Die Kultur der Bakterien erfolgt wie oben beschrieben, allerdings ohne radioaktive Markierung. • b. Weibliche Albino-Wistar Ratten oder weibliche SPF-Mäuse (Chbb:NMRI) werden i.p., i.v., i.m., p.o., vorzugsweise i.m. 8-10 Stunden vor, 15 Minuten vor und 4-5 Stunden nach der Infektion mit 2-200 mg, vorzugsweise 20-40 mg Benzylamin pro kg Körpergewicht bzw. Tylose (Kontrolle) behandelt. Die Bakteriensuspension (5 x 10⁸-10⁻⁹Bakterien/ml physiologischer Kochsalzlösung) wird in einer Vernebelungskammer mit 0,35 ml/ Minute über 10 Minuten vernebelt. Alternativ werden 10⁶ Keime in 0,05 ml physiologischer Kochsalzlösung i.n. in den Nasengang unter einer Inhalationsnarkose, z.B. mit Chloroform, appliziert. Jeweils ein Kollektiv von Tieren wird 1-10, vorzugsweise 10 Stunden nach der Infektion seziert, die Lungen steril entnommen und die Keime im Lungenhomogenat quantitativ durch Anzüchtung auf McConkey-Agar ermittelt. Die Bakterienkonzentration wird in Keimzahl/g Lunge bestimmt.

[2] = system: Klebsiella pneumoniae Weingarten 14 (Adhäsion an menschlichen Lungen-Epithelzellen ATCC, CCL5, L-132); experiment: Direct effect in vitro: adhesion of 14C-labelled bacteria to an epithelial cell monolayer; format: cell-based; details: L132, 3 h, pH 5, read-out: weniger Keime auf den Epithelzellen im Vergleich zur Kontrolle
Description: • a. Der Titer der lebenden Zellen, z.B. von menschlichen Lungen-Epithelzellen wie ATCC, CCL5, L-132, - zu denen nachgewiesenerweise die Verbindungen der obigen allgemeinen Formel I eine sehr hohe Affinität aufweisen, die mit der zum intakten Organ vergleichbar ist - wird mittels Vitalfärbung mit Trypan blue und Auszählung in einer Fuchs-Rosenthal-Zählkammer bestimmt und durch Verdünnung mit Kulturmedium, z.B. Minimum Essential Medium plus 10 % fötales Kälberserum plus 0,1 % Kanamycin, auf 7 x 10⁴ Zellen/ml eingestellt. Je 3 ml dieser Suspension werden in Glasszintillationsfläschchen gefüllt, die durch eine übliche Behandlung für die Anheftung der Epithelzellen auf die Glasoberfläche vorbereitet wurden. Die Inkubation bis zur Ausbildung eines geschlossenen Monolayers erfolgt über 3 Tage bei 37°C und 3 % CO₂. Ein Monolayer entspricht 5 x 10⁶ Zellen pro Szintillationsfläschchen. • b. Die Bakterien, z.B. Klebsiella pneumoniae Weingarten 14, werden in zwei Passagen von je 24 Stunden bei 37° C in Brain Heart Infusion Broth (BHJ) bis zur logarithmischen Wachstumsphase gezüchtet. Während der 2. Passage erfolgt die radioaktive Markierung durch die Zugabe von 1,2-¹⁴C-Azetat zum Nährmedium. Danach wird die Kultur zur Entfernung nichtinkorporierter Radioaktivität zweimal mit PBS (Phosphate buffered saline) gewaschen. […]

[3] = Acute oral toxicity (LD50); details: mouse, in vivo, Maus, p.o., read-out: LD₅₀
Description: Die Verbindungen der obigen allgemeinen Formel I und deren physiologisch verträgliche Säureadditionssalze sind untoxisch und somit gut verträglich. So weist beispielsweise an der Maus • N-Methyl-N-(2-amino-3,5-dibrom-benzyl)-cyclohexylaminhydrochlorid eine LD₅₀ von >10 g/kg p.o., • N-(2-Amino-3,5-dibrom-benzyl)-trans-4-hydroxy-cyclohexylaminhydrochlorid eine von 2,72 g/kg p.o. und • die übrigen Verbindungen eine von >1 g/kg p.o. auf.

[4] = system: Klebsiella pneumoniae Weingarten 14 (Adhäsion an menschlichen Lungen-Epithelzellen ATCC, CCL5, L-132); experiment: Indirect effect ex vivo: bacterial adhesion to epithelial cells after incubation with lung lavage fractions from treated rats; format: cell-based; details: rats 25 mg/kg p.o. over 5 days, vs Tylose control animals
Description: • a. Der Titer der lebenden Zellen, z.B. von menschlichen Lungen-Epithelzellen wie ATCC, CCL5, L-132, - zu denen nachgewiesenerweise die Verbindungen der obigen allgemeinen Formel I eine sehr hohe Affinität aufweisen, die mit der zum intakten Organ vergleichbar ist - wird mittels Vitalfärbung mit Trypan blue und Auszählung in einer Fuchs-Rosenthal-Zählkammer bestimmt und durch Verdünnung mit Kulturmedium, z.B. Minimum Essential Medium plus 10 % fötales Kälberserum plus 0,1 % Kanamycin, auf 7 x 10⁴ Zellen/ml eingestellt. Je 3 ml dieser Suspension werden in Glasszintillationsfläschchen gefüllt, die durch eine übliche Behandlung für die Anheftung der Epithelzellen auf die Glasoberfläche vorbereitet wurden. Die Inkubation bis zur Ausbildung eines geschlossenen Monolayers erfolgt über 3 Tage bei 37°C und 3 % CO₂. Ein Monolayer entspricht 5 x 10⁶ Zellen pro Szintillationsfläschchen. • b. Die Bakterien, z.B. Klebsiella pneumoniae Weingarten 14, werden in zwei Passagen von je 24 Stunden bei 37° C in Brain Heart Infusion Broth (BHJ) bis zur logarithmischen Wachstumsphase gezüchtet. Während der 2. Passage erfolgt die radioaktive Markierung durch die Zugabe von 1,2-¹⁴C-Azetat zum Nährmedium. Danach wird die Kultur zur Entfernung nichtinkorporierter Radioaktivität zweimal mit PBS (Phosphate buffered saline) gewaschen. Mit PBS pH 5,5 wird die Kultur im Photometer auf eine Transmission von 35 % eingestellt, was durch Ermittlung der Lebendkeimzahl einem Titer von 5 x 10⁸ Bakterien/ml entspricht. • c. Die Bakterien-Kultur wird abzentrifugiert, PBS abgenommen und durch ein gleiches Volumen Benzylamin-Lösung in PBS pH 5,5 ersetzt. Für den Kontrollwert wird statt der Benzylamin-Lösung PBS pH 5,5 verwendet. Das Nährmedium der Zellen wird abgenommen, der Monolayer (= 5 x 10⁶ Zellen) wird zweimal mit PBS pH 5,5 gespült und mit 1 ml Bakterien-Benzylamin-Lösung (= 5 x 10⁸ Bakterien) überschichtet. Die Inkubation erfolgt 3 Stunden bei 37° C. Danach wird die Bakterien-Benzylamin-Lösung abgenommen und der Monolayer zur Entfernung nicht-adhärenter Bakterien zweimal mit PBS pH 5,5 gespült. Nach Zugabe von Instagel wird die Radioaktivität der gebundenen Bakterien im Szintillationszähler gemessen. • d. Ergebnis: Mit der Verbindung A (50 |g/ml) wurden im Vergleich zur Kontrolle 15 % weniger Keime auf den Epithelzellen nachgewiesen, mit der Verbindung B (50 |g/ml) 20 %.
• a. Die Kultur der Epithelzellen erfolgt wie oben beschrieben. • b. Die Kultur der Bakterien erfolgt wie oben beschrieben. • c. Männliche SPF-Ratten (Chbb:THOM) werden über 5 Tage p.o. mit 25 mg Benzylamin pro kg Körpergewicht bzw. mit Tylose (Kontrolle) behandelt. Durch Bronchoalveolar-Lavage mit isotoner Harnstofflösung wird das Lungenwaschwasser gewonnen und gepoolt. 100 ml davon werden mittels präparativer Isoelektrofokussierung in 30 proteinhaltige Gelfraktionen aufgetrennt. Nach Bestimmung des isoelektrischen Punktes der einzelnen Fraktionen mit einer Oberflächen-Elektrode werden die Proteine mit 3 ml PBS pH 5,5 pro Fraktion vom Gel eluiert. Die 30 Fraktionen werden auf pH 5,5 eingestellt. • d. Die Bakterienkultur wird abzentrifugiert, PBS abgenommen und durch ein gleiches Volumen Lungenwaschwasserfraktion ersetzt. Für den Kontrollwert wird statt der Lungenwaschwasserfraktionen PBS pH 5,5 und isotone Harnstofflösung verwendet. Nach einer Inkubation von 2 Stunden bei 37° C wird die Bakterienkultur erneut abzentrifugiert, Lungenwaschwasserfraktionen bzw. PBS bzw. Harnstoff abgenommen und durch ein gleiches Volumen PBS pH 5,5 ersetzt. Das Nährmedium der Zellen wird abgenommen, der Monolayer (= 5 x 10⁶ Zellen) wird zweimal mit PBS pH 5,5 gespült und mit 1 ml Bakteriensuspension (= 5 x 10⁸ Bakterien) überschichtet. Die Inkubation erfolgt 2 Stunden bei 37° C Danach wird die Bakteriensuspension abgenommen und der Monolayer zur Entfernung nicht-adhärenter Bakterien zweimal mit PBS pH 5,5 gespült. Nach Zugabe von Instagel wird die Radioaktivität der gebundenen Bakterien im Szintillationszähler gemessen. • e. […]

| Compound | % Keimzahl/g Lunge [1] [%] | inhibition at 50 µg/mL [2] [%] | LD50 [3] [mg/kg] | % Hemmung der Adhäsivität ([4]; Isoelektrischer Punkt der Lungenwaschwasserfraktion 4,0) [%] | % Hemmung der Adhäsivität ([4]; Isoelektrischer Punkt der Lungenwaschwasserfraktion 4,4) [%] | % Hemmung der Adhäsivität ([4]; Isoelektrischer Punkt der Lungenwaschwasserfraktion 4,9) [%] | % Hemmung der Adhäsivität ([4]; Isoelektrischer Punkt der Lungenwaschwasserfraktion 5,2) [%] | % Hemmung der Adhäsivität ([4]; Isoelektrischer Punkt der Lungenwaschwasserfraktion 5,8) [%] | % Hemmung der Adhäsivität ([4]; Isoelektrischer Punkt der Lungenwaschwasserfraktion 6,7) [%] | % Hemmung der Adhäsivität ([4]; Isoelektrischer Punkt der Lungenwaschwasserfraktion 7,6) [%] | % Hemmung der Adhäsivität ([4]; Isoelektrischer Punkt der Lungenwaschwasserfraktion 8,6) [%] |
| --- | --- | --- | --- | --- | --- | --- | --- | --- | --- | --- | --- |
| CN(Cc1cc(Br)cc(Br)c1N)C1CCCCC1 [Verbindung A, N-Methyl-N-(2-amino-3,5-dibrom-benzyl)-cyclohexylaminhydrochlorid] | 49 | 15 | > 10000 | – | – | – | – | – | – | – | – |
| Nc1c(Br)cc(Br)cc1CN[C@H]1CC[C@H](O)CC1 [Verbindung B, N-(2-Amino-3,5-dibrom-benzyl)-trans-4-hydroxy-cyclohexylamin-hydrochlorid] | 31 | 20 | 2720 | 73 | 65 | 65 | 61 | 39 | 67 | 79 | 72 |
